Read-outs that look alike come from different tables or passages of the source.
How the values were obtained:
[1] = test system: iPSCs derived immature neurons
[2] = test system: LC3II in iPSCs from AD patients
Description: Western blotting was performed according to the standard procedure. Total protein extracts from iPSCs cells were obtained by lysing the cells in ice-cold lysis buffer (50 mM Tris-HCl, 150 mM NaCl and 1% Triton X-100) in the presence of a cocktail of protease inhibitors, as described by Hollomon, M G, et al., BMC Cancer 2013; 13:500, which is incorporated by reference in its entirety. After centrifugation, the supernatant was collected, and the total protein was quantified using a bicinchoninic acid (BCA) protein assay kit (Thermo Scientific, Rockford, Ill.). Equal amounts of protein for each lane were loaded and separated on 15% sodium dodecyl sulfate-polyacrylamide gel electrophoresis (SDSPAGE).
After electrophoresis, proteins were transferred onto a polyvinylidene fluoride (PVDF) membrane. The membranes were blocked with 5% fat-free milk dissolved in PBS-T for 1 h at room temperature, and then stained with primary antibody at 4° C. overnight. After the wash with PBS-T, the membranes were incubated with secondary antibodies (HRP conjugated anti-rabbit and anti-mouse IgG) at 1:1,000 dilutions, and β-actin served as a loading control. Signals were detected with an enhanced chemiluminescence detection system (Millipore, Billerica, Mass.) and quantified by scanning densitometry.

5XFAD mice = conditions: for hippocampus-dependent memory (CFC) vs untreated 5XFAD controls / hippocampus-independent memory (FC-cued) vs controls: 6 months of age
[3] = test system: amyloid plaques in hippocampus and cortex of 5XFAD mice; conditions: IN-DAN, SQ-DAN, ETG and LTG
[4] = intranasal 5 mg/kg, 3 times/wk, 4 months; vs vehicle
[5] = test system: vacuolar-type H+-ATPase (V-ATPase) in lysosomes (LAMP-2) of iPSC; conditions: dantrolene 30 μM
[6] = test system: ATP-mediated elevation of cytosolic calcium in cells from Alzheimer's disease patients; conditions: for peak elevation of [Ca2+]c: ATP 30 μM, percentage of baseline
Description: The changes of cytosolic Ca^2+ concentration ([Ca^2+ ]c) of iPSCs after ATP exposure were measured using jellyfish photoprotein aequorin-based probe. 7.5-1.2×10^4 cells were plated on 12 mm coverslips in 24 well plate, grow to 50-60% confluence then transfected with the cyt-Aeq plasmid using Lipofectamine 3000 Transfection Reagent (Thermo Fisher Scientific) according to the manufacturer's instruction. The next day, the transfected cells were incubated with 5 μM coelenterazine for 1 h in modified Krebs-Ringer buffer (in mM: 140 NaCl, 2.8 KCl, 2 MgCl2, 10 Hepes, 11 glucoses, pH 7.4) supplemented with 1 mM CaCl2 and then were transferred to the perfusion chamber. All aequorin measurements were carried out in KRB, anesthetics were added to the same medium as specified. The experiments were performed in a custom-built aequorin recording system. For extracellular Ca^2+ free experiments, Ca^2+ free buffer was used (KRB without Ca^2+ with 5 mM EGTA). The experiments were terminated by lysing the cells with 100 μM digitonin in a hypotonic Ca^2+-rich solution (10 mM CaCl2 in H2O), thus discharging the remaining aequorin pool. The light signal was collected and calibrated into [Ca^2+ ]c values by an algorithm based on the Ca^2+ response curve of aequorin at physiological conditions of pH, [Mg^2+], and ionic strength, as previously described by Filadi R, et al., PNAS 2015; 201504880; Bonora M, et al., Nat Protoc 2013; 8:2105, each of which is incorporated by reference in its entirety.

[7] = not given; remark: listed apart in the source
[8] = test system: glutamate mediated elevation of mitochondrial calcium concentration in iPSC-derived neurons; conditions: FAD neurons; glutamate 20 mM; dantrolene 20 μM pretreatment 1 hour
[9] = test system: cortical neurons generated from SAD and FAD patient iPSCs; conditions: dantrolene for 3 days
[10] = test system: induced pluripotent stem cells (iPSCs) from Alzheimer's disease (AD) patients; conditions: FAD cells; vs DMSO vehicle
Description: (§1) Human control (AG02261) and sporadic Alzheimer's disease (AG11414) iPSCs were obtained from John A. Kessler's lab. Familial Alzheimer's disease (GM24675) iPSCs were purchased from Coriell Institute. Each type of iPSC was generated from skin fibroblasts of one heathy human subject or one patient diagnosed of either SAD or FAD. The human pluripotent stem cells were maintained on Matrigel coated plates (BD Biosciences) in mTeSR™1 medium (Catalog #05850, Stem cell Technologies) and were cultured in a 5% CO2 humidified atmosphere at 37° C. The culture medium was changed every day.

[11] = intranasal 5 mg/kg, 3 times/wk, 3 weeks; vs vehicle
[12] = mouse, in vivo
[13] = 11 months of age
[14] = test system: wild type (WT) and 5XFAD (TG) mice; conditions: all groups
[15] = test system: induced pluripotent stem cells (iPSCs) from Alzheimer's disease (AD) patients; conditions: 24 h; for increase of MTT (cell viability): dantrolene 30 μM
Description: as §1
The cell viability on different wells in 96-well plates was determined using the MTT (3-(4,5-dimethylthiazol-2-yl)-2,5-diphenyltetrazolium bromide, Sigma-Aldrich, St. Louis, Mo.) reduction assay at 24 h as previously described by Qiao H, et al., Anesthesiology 2017; 127:490; Ren G, et al., Sci Rep 2017; 7:12378, each of which is incorporated by reference in its entirety. After being washed with PBS, the samples were incubated with fresh culture medium containing MTT (0.5 mg/mL in the medium) at 37° C. for 4 h in the dark. The medium was then removed and formazan was solubilized with dimethyl sulfoxide (DMSO). The absorbance was measured at 540 nm with plate reader (Synergy™ H1 microplate reader, BioTek, Winooski, Vt.).

[16] = all groups, 10 months of age
[17] = test system: cortical neurons generated from SAD and FAD patient iPSCs; conditions: FAD cells; dantrolene treatment
[18] = test system: NMDA mediated elevation of cytosolic Ca2+ concentrations in iPSC from AD patients
iPSC from AD patients = conditions: compared with DMSO
Description: As described previously by Ren G, et al., Sci Rep 2017; 7:12378, which is incorporated by reference in its entirety, LysoTracker® Red DND-99 (Molecular Probe, Eugene, Oreg.) probe stock solution was diluted to a working concentration of 50 nM in HBSS+. IPSCs cells were plated on coverslips coated with Matrigel (BD Biosciences) in mTeSR™1 (Catalog #05850). After being washed three times with HBSS+, the cells were loaded with pre-warmed (37° C.) probe containing HBSS+ and incubated for 1 h at 37° C. Fresh medium was added to replace the labeling solution. The cells were observed by a fluorescent microscope fitted with the correct filter set for the probe used, to determine if the cells were sufficiently fluorescent. LysoTracker Red used an […].

## glutamate
[1]; glutamate 20-30 mM, 24 hours
  cytosolic ATP production: dose dependently decreased

## bafilomycin
[2]; SAD and FAD iPSCs, vs dantrolene alone
  LC3II level on co-treatment with dantrolene: further elevated

## O=C1CN(/N=C/c2ccc(-c3ccc([N+](=O)[O-])cc3)o2)C(O)=N1 [dantrolene]
5XFAD mice; IN-DAN, ETG
  hippocampus-dependent memory (CFC) vs untreated 5XFAD controls: significantly greater memory
  hippocampus-independent memory (FC-cued) vs controls: significantly improved
5XFAD mice; IN-DAN, ETG, 11 months of age
  hippocampus-dependent memory (CFC) vs 5XFAD controls: significantly greater
  hippocampus-independent memory (FC-cued) vs 5XFAD CON: significantly better
5XFAD mice; IN-DAN, LTG, 11 months
  hippocampus-independent memory (FC-cued) vs 5XFAD CON: No significant memory improvement
5XFAD mice; IN-DAN, LTG, 11 months of age
  hippocampus-dependent memory (CFC) vs 5XFAD CON: significantly improved
5XFAD mice; SQ-DAN, ETG
  hippocampus-dependent memory (CFC) vs untreated 5XFAD controls: significantly greater memory
  hippocampus-independent memory (FC-cued) vs controls: significantly improved
5XFAD mice; SQ-DAN, ETG, 11 months of age
  hippocampus-independent memory (FC-cued) vs 5XFAD CON: trended to improve memory but were not statistically different
5XFAD mice; SQ-DAN, LTG, 11 months
  hippocampus-independent memory (FC-cued) vs 5XFAD CON: No significant memory improvement
5XFAD mice; SQ-DAN, LTG, 11 months of age
  hippocampus-dependent memory (CFC) vs 5XFAD CON: trended to be better but was not statistically significant
[3]
  number of amyloid plaques per area (mm^2) in hippocampus and cortex: No significant differences
[3]; vs control
  percent area of the hippocampus and cortex occupied by plaques: No significant differences
[4]
  motor function, time spent on the rotarod: No significant differences
5XFAD, 6-month intranasal treatment in LTG
  plasma alanine aminotransferase (ALT) activity vs control group: significantly increased
5XFAD, other treatment groups
  plasma alanine aminotransferase (ALT) activity vs control group: No significant differences
WT, 6-month subcutaneous treatment in LTG
  plasma alanine aminotransferase (ALT) activity vs control group: significantly increased
WT, other treatment group
  plasma alanine aminotransferase (ALT) activity vs control group: No significant difference
[5]; FAD cells
  V-ATPase in lysosomes (LAMP-2) compared with controls: no longer significantly reduced
[5]; SAD cells
  V-ATPase in lysosomes (LAMP-2) compared with controls: remained significantly lower
[1]; neurons derived from AD patients
  glutamate-induced reduction of cytosolic ATP concentration: significantly inhibited
[6]; FAD cells, dantrolene 30 μM pretreatment, 1 mM extracellular Ca2+
  integrated cytosolic Ca2+ (AUC), ATP+Ca2++DAN vs ATP+Ca2+: significantly reduced
[6]; absence of extracellular Ca2+ influx, SAD/FAD cells, not statistically significant
  ATP-mediated peak or overall elevation of [Ca2+]c: only trended to inhibit
[6]; control cells, dantrolene 30 μM pretreatment, 1 mM extracellular Ca2+
  integrated cytosolic Ca2+ (AUC), ATP+Ca2++DAN vs ATP+Ca2+: significantly reduced
[6]; dantrolene 30 μM pretreatment, 1 mM extracellular Ca2+, between groups
  peak cytosolic [Ca2+]c, ATP+Ca2++DAN: no significant differences
[7]; 5XFAD mice, ETG groups
  bodyweight growth curve: No significant differences
[7]; WT, 12 months of age
  body weight: No significant difference
[8]
  glutamate-induced overall exposure (AUC) of mitochondrial calcium concentration: abolished
  glutamate-induced peak elevation of mitochondrial calcium concentration: abolished
[9]; FAD cells
  mean number of dendrite intersections at around 150 μM from soma: significantly greater
[9]; SAD cells
  mean number of dendrite intersections at around 150 μM from soma: significantly greater
[10]
  cell proliferation, percentage of BrdU-positive cells: greater proliferation
[11]
  olfaction, time to retrieve buried food: No significant differences
[12]
  motor function (rotarod) vs control group: No significant differences
[13]; 5XFAD ETG mice
  hepatic pathology (H&E stained sections): No gross differences
[13]; WT ETG mice
  hepatic pathology (H&E stained sections): No gross differences
[14]; 10 months
  number of times the animals crossed the platform: no significant differences
  percent time in the target quadrant (probe trial) vs controls: no significant differences
[14]; 10 months of age
  escape latency in place trials vs controls: no significant differences
[15]; iPSC FAD
  increase of MTT (cell viability): 67.6%
[15]; iPSC SAD
  increase of MTT (cell viability): 15.1%
[15]; iPSCs from healthy human subjects (CON), 30 μM
  cell viability (MTT): did not affect
[16]; 5XFAD
  olfaction (buried food test): No significant differences
[16]; WT
  olfaction (buried food test): No significant differences
[17]
  PSD95 density: significantly greater
  synapsin-1 density: significantly increased
[18]
  NMDA-mediated elevation of [Ca2+]c and AUC: ameliorated
iPSC from AD patients; FAD cells
  lysotracker-positive acidic vesicles: significantly increased
iPSC from AD patients; SAD cells
  lysotracker-positive acidic vesicles: significantly increased
[2]; FAD iPSCs, P<0.001
  increase of LC3II level: 49.4%
[2]; SAD iPSCs, P=0.3483
  increase of LC3II level: 47.3%

## Nc1ncnc2c1ncn2[C@@H]1O[C@H](COP(=O)(O)OP(=O)(O)OP(=O)(O)O)[C@@H](O)[C@H]1O [ATP, adenosine triphosphate]
[6]; FAD cells
  peak elevation of [Ca2+]c: 128.3%
[6]; SAD cells
  peak elevation of [Ca2+]c: 140.4%
[6]; control cells
  peak elevation of [Ca2+]c: 84.1%
